Data set [1] has as its system KB. The data set is described as follows: Cytotoxicity against human KB cells. The format is functional, cell-based.
Data set [2] concerns Artemia. Put plainly: Toxicity in brine shrimp at 100 ug/mL. It is filed as organism-based. As to conditions: in vivo; call rule not given here.
The nature of data set [3]: Toxicity in brine shrimp. The format is organism-based. As to conditions: artemia, in vivo; read-out: LD50 (the source's name).

Among the data in ChEMBL document CHEMBL1142611, “Neovibsanin F and its congeners, rearranged vibsane-type diterpenes from Viburnum suspensum” (J Nat Prod, 2006) are IC50, Activity and LC50 values, retold here.

Structures are written as SMILES. ≈ marks a conversion by molar mass, not a printed value.

Regarding `COc1cccc2c1C(=O)c1c(O)c3c(c(O)c1C2=O)C[C@@](O)(C(=O)CO)C[C@@H]3O[C@H]1C[C@H](N)[C@H](O)[C@H](C)O1` [DOXORUBICIN], in data set [1], the IC50 (as a rule, the concentration that inhibits the measured activity by half) came out at 0.007 µM. This lies in the single-digit nanomolar range.
`CC(=O)C[C@@H]1OCC2=C1[C@H](/C=C/OC(=O)C=C(C)C)[C@@](C)(CCC=C(C)C)C[C@H]2O` [NEOVIBSANIN I] showed an IC50 in data set [1] of 18 µM.
As to `CC(=O)C[C@@H]1OC(=O)C2=C1[C@H](/C=C/OC(=O)C=C(C)C)[C@@]1(C)CC[C@H](C(C)(C)O)[C@@H]2C1`, in data set [2], the Activity result is given as “Not Active”.
For `CC(=O)C[C@@H]1OCC2=C1[C@H](/C=C/OC(=O)C=C(C)C)[C@@]1(C)CC[C@@H](C(C)(C)O)[C@@H]2C1` [NEOVIBSANIN F], the LC50 in data set [3] turned out to be 46 µg/mL (≈ 110 µM).
For the compound `CC(C)=CCC[C@]1(C)/C=C/[C@@H](OC(=O)C=C(C)C)[C@](C)(O)/C=C/C(=O)/C(CO)=C\C1` [VIBSANIN B], the half-inhibitory concentration (IC50) in data set [1] worked out at 3.5 µM. Besides, the LC50 in data set [3] turned out to be 17.5 µg/mL (≈ 42 µM).
`CC(=O)C[C@@H]1OCC2=C1[C@H](/C=C/OC(=O)C=C(C)C)[C@@]1(C)CC[C@H](C(C)(C)O)[C@@H]2C1`: in data set [2], the Activity entry is given as “Not Active”.
